# Experimental data published in publication PMC4261083, “An atypical residue in the pore of Varroa destructor GABA-activated RDL receptors affects picrotoxin block and thymol modulation” (Insect Biochemistry and Molecular Biology, 2014).
# Positions count from the first letter of the chain named.
# Legend:
# Test in all cases: GABA activation of RDL receptors, two electrode voltage clamp in Xenopus oocytes
# Assay type in all cases: cell-based
# [1] = target: T1, 4M2 mutant Drosophila RDL receptor (N-7′H, T6′M, A20′S and A21′Q) (Drosophila melanogaster, UniProt P25123, A319S/A320Q/N292H/T305M); settings: 4M2 RDL
# T1 construct: expressed in transfected cells; host or cells: Xenopus laevis oocytes injected with cRNA
# T1 sequence (P25123 45-606 N292H/T305M/A319S/A320Q): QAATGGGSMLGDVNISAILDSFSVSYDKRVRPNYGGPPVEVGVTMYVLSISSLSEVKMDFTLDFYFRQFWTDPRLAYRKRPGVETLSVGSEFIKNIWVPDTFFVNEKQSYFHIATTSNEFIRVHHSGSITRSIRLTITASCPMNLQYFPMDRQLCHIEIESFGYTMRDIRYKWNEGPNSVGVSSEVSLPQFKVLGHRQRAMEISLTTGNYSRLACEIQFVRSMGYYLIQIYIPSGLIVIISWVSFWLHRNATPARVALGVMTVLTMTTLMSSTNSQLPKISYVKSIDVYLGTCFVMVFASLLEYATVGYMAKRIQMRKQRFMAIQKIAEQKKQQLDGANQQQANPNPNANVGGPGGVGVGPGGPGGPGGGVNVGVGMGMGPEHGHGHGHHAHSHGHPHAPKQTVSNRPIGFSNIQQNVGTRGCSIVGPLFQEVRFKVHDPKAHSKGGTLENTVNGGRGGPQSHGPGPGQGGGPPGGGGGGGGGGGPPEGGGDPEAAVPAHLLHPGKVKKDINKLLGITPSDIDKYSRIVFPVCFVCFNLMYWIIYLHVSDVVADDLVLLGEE
# Method: (§1) X. laevis oocyte-positive females were purchased from NASCO (Fort Atkinson, Wisconsin, USA) and maintained according to standard methods. Harvested stage V-VI Xenopus oocytes were washed in four changes of ND96 (96 mM NaCl, 2 mM KCl, 1 mM MgCl2, 1 mM CaCl2, 5 mM HEPES, pH 7.5), de-folliculated in 1.5 mg ml^−1 collagenase Type 1A for approximately 2 h, washed again in four changes of ND96 and stored in ND96 containing 2.5 mM sodium pyruvate, 0.7 mM theophylline and […].
# (§2) Site directed mutagenesis was performed with the QuikChange mutagenesis kit (Agilent, La Jolla, CA). cRNA was transcribed in vitro from linearised pGEMHE cDNA template using the mMessage mMachine T7 Transcription kit (Ambion, Austin, Texas, USA). Stage V and VI oocytes were injected with 5 ng cRNA, incubated at 18 °C, and currents recorded 18–24 h post-injection.
# (§3) Currents were recorded at 5 kHz and filtered at a frequency of 1 kHz. Micro-electrodes were fabricated from borosilicate glass (GC120TF-10, Harvard Apparatus, Edenbridge, Kent, UK) using a one stage horizontal pull (P-87, Sutter Instrument Company, California, USA) and filled with 3 M KCl. […] Oocytes were perfused with ND96 at a constant rate of 12 ml min^−1. Drug application was via a simple gravity fed system calibrated to run at the same rate.
# (§4) Analysis and curve fitting was performed using Prism v5 (GraphPad Software, San Diego, California, USA). Concentration-response data for each oocyte was normalised to the maximum current for that oocyte. The mean and S.E.M. for a series of oocytes were fitted to the four parameter logistic equation in Prism.
# [2] = target: T2, N-7′H mutant Drosophila RDL receptor (Drosophila melanogaster, UniProt P25123, N292H); settings: N-7′H RDL
# T2 construct: expressed in transfected cells; host or cells: Xenopus laevis oocytes injected with cRNA
# T2 sequence (P25123 45-606 N292H): T1 sequence (P25123 45-606 N292H/T305M/A319S/A320Q) with M261T, S275A, Q276A
# Method: as §1, §2, §3, §4
# [3] = target: T3, T6′M mutant Drosophila RDL receptor (Drosophila melanogaster, UniProt P25123, T305M)
# T3 construct: expressed in transfected cells; host or cells: Xenopus laevis oocytes injected with cRNA
# T3 sequence (P25123 45-606 T305M): T1 sequence (P25123 45-606 N292H/T305M/A319S/A320Q) with H248N, S275A, Q276A
# Method: as §1, §2, §3, §4
smiles,measurement,setting,value
NCCCC(=O)O [GABA],GABA nH (Hill slope),[1],1.0 ± 0.3
same,GABA nH (Hill slope),[2],2.5 ± 0.5
same,GABA nH (Hill slope),[3],1.4 ± 0.2
